Data published in ChEMBL document CHEMBL1201862, “PubChem BioAssay data set” (2004).
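96-well plates; 48 h exposure; 5 concentrations. Endpoints by linear interpolation between flanking doses. Not reached: highest tested concentration assigned. At the GI50, growth is halved.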 Calls of active or inactive are those of the source. No stated cut-off is given here; in the data, active = GI50 up to about 1.1 µM and inactive = higher.

Experiments:
Assay in all cases: NCI tumour cell line growth inhibition, 48 h
MOLT-4 = system: MOLT-4
Malme-3M = system: Malme-3M
HOP-62 = system: HOP-62
OVCAR-4 = system: OVCAR-4
DU-145 = system: DU-145
BT-549 = system: BT-549
K562 = system: K562
LOX IMVI = system: LOX IMVI
CAKI-1 = system: CAKI-1
ACHN = system: ACHN
NCI-H522 = system: NCI-H522
MDA-MB-435 = system: MDA-MB-435
CCRF-CEM = system: CCRF-CEM
KM12 = system: KM12
UACC-62 = system: UACC-62
HL-60 = system: HL-60
SF-268 = system: SF-268
SK-OV-3 = system: SK-OV-3
SW-620 = system: SW-620
HOP-92 = system: HOP-92

Measured: GI50

Cc1cc2c(cc1Cl)SC(NNc1ccc([N+](=O)[O-])cc1)=NS2(=O)=O
inactive: MOLT-4 > 10 µM | Malme-3M > 10 µM | HOP-62 > 10 µM | OVCAR-4 > 10 µM | DU-145 > 10 µM | BT-549 > 10 µM | K562 > 10 µM | LOX IMVI > 10 µM | CAKI-1 > 10 µM | ACHN > 10 µM | NCI-H522 > 10 µM | MDA-MB-435 > 10 µM | CCRF-CEM > 10 µM | KM12 > 10 µM | UACC-62 > 10 µM | HL-60 > 10 µM | SF-268 > 10 µM | SK-OV-3 > 10 µM | SW-620 > 10 µM

[O-][S+](Cc1ccccc1)c1ccccc1Cn1cccc1 (stereo unspecified)
inactive: Malme-3M > 100 µM | HOP-62 > 100 µM | OVCAR-4 41.9 µM | DU-145 > 100 µM | HOP-92 96.6 µM | BT-549 61.1 µM | K562 71.1 µM | LOX IMVI > 100 µM | CAKI-1 > 100 µM | ACHN > 100 µM | MDA-MB-435 42.6 µM | CCRF-CEM > 100 µM | KM12 > 100 µM | UACC-62 71.6 µM | HL-60 > 100 µM | SF-268 > 100 µM | SK-OV-3 > 100 µM | SW-620 > 100 µM

COC(=O)c1c(O)ccc2c1c1c(n2CCc2ccc(OC)c(OC)c2)C(=O)c2ccccc2C1=O
inactive: MOLT-4 9.25 µM | Malme-3M 14 µM | HOP-62 16 µM | OVCAR-4 13.7 µM | DU-145 15.6 µM | HOP-92 14.6 µM | BT-549 10.9 µM | K562 20.5 µM | CAKI-1 17.5 µM | ACHN 18.2 µM | NCI-H522 2.69 µM | MDA-MB-435 14 µM | CCRF-CEM 9.79 µM | KM12 13 µM | UACC-62 15.2 µM | HL-60 23.4 µM | SF-268 17.5 µM | SK-OV-3 19.4 µM

COc1ccc2c(c1)CC1(O)COc3cc(OC)ccc3C1O2 (stereo unspecified)
inactive: MOLT-4 48.4 µM | Malme-3M > 100 µM | HOP-62 > 100 µM | OVCAR-4 63.7 µM | DU-145 > 100 µM | HOP-92 > 100 µM | BT-549 > 100 µM | LOX IMVI > 100 µM | CAKI-1 > 100 µM | ACHN > 100 µM | NCI-H522 > 100 µM | MDA-MB-435 > 100 µM | CCRF-CEM > 100 µM | KM12 > 100 µM | UACC-62 > 100 µM | SF-268 > 100 µM | SK-OV-3 > 100 µM | SW-620 95.1 µM

N/N=C(\N)SCCCCCCCCCCS/C(N)=N/N
active: SK-OV-3 < 0.01 µM
inactive: Malme-3M 12 µM | HOP-62 40.5 µM | DU-145 20.9 µM | BT-549 19.5 µM | K562 15.1 µM | LOX IMVI 11.5 µM | CAKI-1 36.1 µM | ACHN 20.7 µM | NCI-H522 17.1 µM | MDA-MB-435 32.7 µM | CCRF-CEM 17.2 µM | KM12 20 µM | UACC-62 21.5 µM | HL-60 17.3 µM | SF-268 30.3 µM | SW-620 17.7 µM

C/C(=N\c1ccc(Cl)cc1)c1ccncc1
inactive: MOLT-4 3.4 µM | Malme-3M > 100 µM | HOP-62 > 100 µM | OVCAR-4 > 100 µM | DU-145 > 100 µM | HOP-92 > 100 µM | BT-549 > 100 µM | K562 > 100 µM | LOX IMVI > 100 µM | CAKI-1 > 100 µM | NCI-H522 > 100 µM | MDA-MB-435 1.9 µM | CCRF-CEM 1.22 µM | KM12 > 100 µM | SF-268 53.5 µM | SW-620 2.72 µM
active: ACHN 0.233 µM

COC(=O)c1c(O)ccc2c1c1cc3ccccc3c(O)c1n2CCc1ccc(OC)c(OC)c1
inactive: MOLT-4 89.3 µM | Malme-3M 59.4 µM | HOP-62 > 100 µM | OVCAR-4 42.1 µM | DU-145 96.6 µM | HOP-92 31.3 µM | BT-549 16.7 µM | K562 87.1 µM | CAKI-1 68.7 µM | ACHN 83.4 µM | NCI-H522 21.1 µM | MDA-MB-435 53.7 µM | CCRF-CEM 30.1 µM | KM12 51.3 µM | UACC-62 > 100 µM | HL-60 65.9 µM | SF-268 76.4 µM | SK-OV-3 > 100 µM

COc1ccc(CCNC(=O)c2ccccc2C2c3ccc(OCc4ccccc4)cc3Oc3cc(OCc4ccccc4)ccc32)cc1OC
inactive: MOLT-4 > 100 µM | Malme-3M > 100 µM | HOP-62 > 100 µM | OVCAR-4 > 100 µM | DU-145 > 100 µM | BT-549 > 100 µM | K562 > 100 µM | LOX IMVI > 100 µM | CAKI-1 > 100 µM | ACHN > 100 µM | NCI-H522 > 100 µM | MDA-MB-435 > 100 µM | KM12 > 100 µM | UACC-62 > 100 µM | SF-268 > 100 µM | SK-OV-3 > 100 µM | SW-620 > 100 µM
active: HL-60 0.668 µM

OC1c2ccccc2CCC1CN1CCN(CCOC(c2ccc(F)cc2)c2ccc(F)cc2)CC1 (stereo unspecified)
active: CCRF-CEM 0.145 µM
inactive: MOLT-4 8.83 µM | Malme-3M 15.2 µM | HOP-62 20.5 µM | OVCAR-4 50.5 µM | DU-145 21 µM | HOP-92 9.16 µM | BT-549 12.4 µM | K562 2.94 µM | LOX IMVI 13.8 µM | CAKI-1 25.1 µM | ACHN 21.6 µM | NCI-H522 15.7 µM | MDA-MB-435 17.5 µM | KM12 20.5 µM | UACC-62 13.8 µM | SF-268 16.6 µM | SK-OV-3 94.8 µM | SW-620 16.2 µM

Cc1ccc(S(=O)(=O)NC2C(=O)c3ccccc3C(=O)C2n2cnc3ccccc32)cc1 (stereo unspecified)
active: Malme-3M 0.214 µM
inactive: MOLT-4 19.2 µM | HOP-62 50.4 µM | OVCAR-4 2.19 µM | DU-145 57.9 µM | HOP-92 14.4 µM | BT-549 28.8 µM | K562 90.6 µM | LOX IMVI 31.8 µM | CAKI-1 60 µM | ACHN 24.3 µM | MDA-MB-435 18.6 µM | CCRF-CEM 53.1 µM | KM12 9.4 µM | UACC-62 28.3 µM | HL-60 16.6 µM | SF-268 40 µM | SK-OV-3 66.5 µM | SW-620 25.3 µM

COC(NC(N)=O)C(=O)O (stereo unspecified)
inactive: MOLT-4 > 100 µM | Malme-3M > 100 µM | HOP-62 > 100 µM | OVCAR-4 > 100 µM | DU-145 > 100 µM | HOP-92 > 100 µM | BT-549 > 100 µM | K562 > 100 µM | CAKI-1 > 100 µM | ACHN > 100 µM | NCI-H522 > 100 µM | MDA-MB-435 > 100 µM | CCRF-CEM 11 µM | KM12 > 100 µM | UACC-62 > 100 µM | SF-268 > 100 µM | SK-OV-3 > 100 µM | SW-620 > 100 µM
active: HL-60 0.495 µM

O=c1oc2ccc(Cl)cc2cc1-c1cn2ccccc2n1
inactive: MOLT-4 > 100 µM | Malme-3M 3.46 µM | HOP-62 3.67 µM | OVCAR-4 13.7 µM | DU-145 > 61.9 µM | HOP-92 21.9 µM | BT-549 34.5 µM | K562 > 100 µM | LOX IMVI 15 µM | CAKI-1 15.2 µM | ACHN 2.64 µM | NCI-H522 36.6 µM | MDA-MB-435 > 100 µM | CCRF-CEM > 81.3 µM | KM12 > 100 µM | UACC-62 13 µM | SF-268 > 39.8 µM | SK-OV-3 2.14 µM | SW-620 85.5 µM

Clc1cc2nnn(C3CCCO3)c2cc1Cl (stereo unspecified)
inactive: MOLT-4 83.6 µM | Malme-3M > 100 µM | HOP-62 > 100 µM | DU-145 > 100 µM | BT-549 49.7 µM | K562 > 100 µM | CAKI-1 > 100 µM | NCI-H522 > 100 µM | MDA-MB-435 > 100 µM | CCRF-CEM > 100 µM | UACC-62 > 100 µM | HL-60 > 100 µM | SF-268 > 100 µM | SK-OV-3 > 100 µM

Cc1ccc(CC2(OCCN(C)C)CCC(C(C)(C)C)CC2)cc1 (stereo unspecified)
inactive: MOLT-4 2.04 µM | Malme-3M 1.99 µM | HOP-62 2.55 µM | OVCAR-4 5.13 µM | DU-145 5.47 µM | BT-549 6.22 µM | K562 1.87 µM | LOX IMVI 1.63 µM | CAKI-1 4.21 µM | ACHN 8.02 µM | NCI-H522 4.88 µM | MDA-MB-435 2.4 µM | CCRF-CEM 2.65 µM | KM12 2.86 µM | UACC-62 3.31 µM | HL-60 2.02 µM | SF-268 9.33 µM | SK-OV-3 11.2 µM | SW-620 2.45 µM

CC(C)(C)OC(=O)c1cnc(Cl)cn1
inactive: MOLT-4 27.3 µM | Malme-3M 51.6 µM | HOP-62 > 100 µM | OVCAR-4 28.1 µM | DU-145 87.5 µM | HOP-92 3.12 µM | BT-549 48.5 µM | K562 28.4 µM | LOX IMVI 23.8 µM | CAKI-1 3.56 µM | ACHN 35.6 µM | MDA-MB-435 56.6 µM | CCRF-CEM 18.7 µM | KM12 22.3 µM | UACC-62 31.8 µM | SF-268 55.5 µM | SK-OV-3 > 100 µM | SW-620 55.8 µM
active: NCI-H522 1.05 µM
